Tests used:
[1] = system: Friend cells (an erythroleukemic cell line); assay: MTT cytotoxicity, Friend cells (Example 5); format: cell-based; conditions: 72 hour
Procedure: The toxicity of methotrexate derivatives of the invention (DP-MTX) was evaluated in an additional cell-culture system. The doses required to inhibit the growth of cultured Friend cells (an erythroleukemic cell line) by 50%, over a 72 hour period (ED50), were determined using a mitochondrial viability (MTT) endpoint assay.
Friend cells were seeded at a density of 10^4 cells/ml in RPMI medium supplemented with 10% FCS in 96 well plates. The cultured cells were incubated, during their linear growth phase, in the presence and absence of various concentrations of MTX derivatives. After 72 hours at 37° C., cell viability was estimated by using the colorimetric MTT assay.

[2] = system: rat C6 glioma cell line; assay: MTT cell growth inhibition, C6 glioma cells (Example 4); format: cell-based; conditions: 72 hours, MTT assay; read-out: EC50, nMol C6 glioma
Procedure: (§1) A series of methotrexate derivatives were screened for their inhibitory effect on cell growth. Three tumor cell lines were used for this screen: i) human leukemia cell line CCRF-CEM which is MTX-sensitive (herein denoted as CEM), ii) a mutant of CEM cell line which is MTX-resistant due to a mutation in the RFC (herein denoted as CEM-MTX; provided by Dr. […], Technion, Israel), and iii) rat C6 glioma cell line. Cells were seeded at a density of 10^4 cells/ml in RPMI medium supplemented with 10% FCS in 96 well plates. The cultured cells were incubated, during their linear growth phase, in the presence and absence of various concentrations of MTX derivatives. The tested compounds were prepared as 1 mM stock in absolute ethanol or DMSO and were diluted into the medium. The highest vehicle presence in the assay was 5% of the vehicle. After 72 hours at 37° C. the cytotoxic effect on the cells was estimated by using the colorimetric MTT assay (Mosmann (1983) J. Immunol Methods 65: 55-63) that measures mitochondrial reductase activity and serves for quantitative assessment of cellular viability. […] The EC50 values were calculated from dose response curves for each tested compound.

[3] = system: CEM-MTX (MTX-resistant mutant of CEM, mutation in the RFC); assay: MTT cell growth inhibition, MTX-resistant CEM-MTX cells (Example 4); format: cell-based, human; conditions: for EC50: 72 hours, MTT assay, read-out: EC50, nMol CEM-MTX
Procedure: A series of methotrexate derivatives were screened for their inhibitory effect on cell growth. Three tumor cell lines were used for this screen: i) human leukemia cell line CCRF-CEM which is MTX-sensitive (herein denoted as CEM), ii) a mutant of CEM cell line which is MTX-resistant due to a mutation in the RFC (herein denoted as CEM-MTX; provided by Dr. Y. Assraf, Technion, Israel), and iii) rat C6 glioma cell line.
Cells were seeded at a density of 10^4 cells/ml in RPMI medium supplemented with 10% FCS in 96 well plates. The cultured cells were incubated, during their linear growth phase, in the presence and absence of various concentrations of MTX derivatives. The tested compounds were prepared as 1 mM stock in absolute ethanol or DMSO and were diluted into the medium. The highest vehicle presence in the assay was 5% of the vehicle. After 72 hours at 37° C. the cytotoxic effect on the cells was estimated by using the colorimetric MTT assay (Mosmann (1983) J. Immunol Methods 65: 55-63) that measures mitochondrial reductase activity and serves for quantitative assessment of cellular viability. Drug concentration required for inhibiting the growth of 50% of cell population in culture over a 72 hour period incubation, is defined as EC50.
The EC50 values were calculated from dose response curves for each tested compound.

[4] = system: human leukemia cell line CCRF-CEM (CEM); assay: MTT cell growth inhibition, CEM cells (Example 4); format: cell-based; conditions: 72 hours, MTT assay; read-out: EC50, nMol CEM
Procedure: as §1

[5] = system: PLA2; conditions: isoform not stated; read-out: IC50 of known inhibitors of PLA2; cited from earlier work
[6] = system: RFC-mediated MTX-resistant cell line (L1210-MTX); assay: MTT cytotoxicity, L1210-MTX cells (Example 9); format: cell-based; conditions: Mus musculus
[7] = system: L1210; assay: MTT cytotoxicity, parent L1210 cells (Example 9); format: cell-based; conditions: Mus musculus

In the case of `CCCCCCCCCCCCCCCCCC(=O)OC[C@H](COP(=O)([O-])OCC[N+](C)(C)C)OC(=O)CCNC(=O)C(CCC(=O)O)NC(=O)c1ccc(N(C)Cc2cnc3nc(N)nc(N)c3n2)cc1` (stereo partly drawn) [DP-MTX-93, 1-Stearoyl-2-[3-(α-MTX amido)-Propanoyl]-sn-Glycero-3-phosphocholine], the “ED50” value [1] is reported as 97.5 nmol, the EC50 [2] is reported as 0.417 µM and the EC50 [3] is reported as 4.65 µM. The EC50 [4] was 0.027 µM.

In the case of `CCCCCCCCCCCCCCCCCC(=O)OC[C@H](COP(=O)([O-])OCC[N+](C)(C)C)OC(=O)CCCCCNC(=O)C(CCC(=O)O)NC(=O)c1ccc(N(C)Cc2cnc3nc(N)nc(N)c3n2)cc1` (stereo partly drawn) [DP-MTX-106, 1-Stearoyl-2-[6-(α-MTX amido)-Hexanoyl]-sn-Glycero-3-phosphocholine], the “ED50” value [1] is reported as 390 nmol, the EC50 [2] is reported as 3.22 µM and the EC50 [3] is reported as 8.4 µM. The EC50 [4] was 0.499 µM.

In the case of `CCCCCCCCCCCCCCCCCC(=O)OC[C@H](COP(=O)([O-])OCC[N+](C)(C)C)OC(=O)CCCCCCCNC(=O)[C@H](CCC(=O)OCCCCCCCCCCCC)NC(=O)c1ccc(N(C)Cc2cnc3nc(N)nc(N)c3n2)cc1` [DP-MTX-127, 1-Stearoyl-2-[8-(γ-dodecylate-α-MTX amido)-Octanoyl]-sn-Glycero-3-phosphocholine], the EC50 [2] is reported as 0.795 µM.

`CCCCCCCCCCCCCCCCCC(=O)OC[C@H](COP(=O)([O-])OCC[N+](C)(C)C)OC(=O)CCNC(=O)[C@H](CCC(=O)OCCCCCCCCCCCC)NC(=O)c1ccc(N(C)Cc2cnc3nc(N)nc(N)c3n2)cc1` [DP-MTX-128, 1-Stearoyl-2-[3-(γ-dodecylate-α-MTX amido)Propanoyl]-sn-Glycero-3-phosphocholine] showed an EC50 [3] of 1.6 µM and an EC50 [4] of 0.771 µM.

For `CCCCCCCCCCCCCCCCCC(=O)OC[C@H](COP(=O)([O-])OCC[N+](C)(C)C)OC(=O)CCCNC(=O)C(CCC(=O)O)NC(=O)c1ccc(N(C)Cc2cnc3nc(N)nc(N)c3n2)cc1` (stereo partly drawn) [DP-MTX-129, 1-Stearoyl-2-[4-(α-MTX amido)-Butanoyl]-sn-Glycero-3-phosphocholine], the “ED50” value [1] was 97.5 nmol, the EC50 [2] was 3.11 µM and the EC50 [3] was 5.98 µM. For the same compound, the EC50 [4] was 0.821 µM.

In the case of `CCCCCCCCCCCCCCCCCC(=O)OC[C@H](COP(=O)([O-])OCC[N+](C)(C)C)OC(=O)CCCCCCCNC(=O)C(CCC(=O)O)NC(=O)c1ccc(N(C)Cc2cnc3nc(N)nc(N)c3n2)cc1` (stereo partly drawn) [DP-MTX-142, 1-Stearoyl-2-[8-(α-MTX amido)-Octanoyl]-sn-Glycero-3-phosphocholine], the “ED50” value [1] is reported as 3000 nmol, the EC50 [2] is reported as 36 µM and the EC50 [3] is reported as 11.6 µM. For the same compound, the EC50 [4] was 6.34 µM.

For `CC(Cc1ccc(O)c(O)c1)C(C)Cc1ccc(O)c(O)c1` (stereo not drawn) [NDGA], the IC50 [5] is listed as 40 µM.

In the case of `CCN(CC)CCCC(C)Nc1c2ccc(Cl)cc2nc2ccc(OC)cc12` (stereo not drawn) [Quinacrine], the IC50 [5] is listed as 390 µM.

Work on `CC(=O)O[C@H]1C(=O)[C@@]2(C)[C@H]([C@H](OC(=O)c3ccccc3)[C@]3(O)C[C@H](OC(=O)[C@H](O)[C@@H](NC(=O)c4ccccc4)c4ccccc4)C(C)=C1C3(C)C)[C@]1(OC(C)=O)CO[C@@H]1C[C@@H]2O` [TAX, Taxol] yielded an EC50 [6] of 0.008 µM and an EC50 [7] of 0.008 µM.

In the case of `CCCCCCCCCCCCOC(=O)[C@H](CCC(=O)O)NC(=O)c1ccc(N(C)Cc2cnc3nc(N)nc(N)c3n2)cc1` [α-C12H25-MTX, α:-dodecylate-MTX], the “inhibiting the growth of the MTX-resistant cell line, CEM-MTX (in words)” value (from here on “inhibiting the growth”) [3] is reported as “not effective”, the EC50 [3] is reported as 9.42 µM and the EC50 [4] is reported as 0.088 µM.

In the case of `CCCCCCCCCCCCOC(=O)CC[C@H](NC(=O)c1ccc(N(C)Cc2cnc3nc(N)nc(N)c3n2)cc1)C(=O)OCCCCCCCCCCCC` [α-C12H25-MTX-γ-C12H25, α-dodecylate-MTX-γ-dodecylate], the EC50 [2] is reported as 0.807 µM, the “inhibiting the growth” value [3] is reported as “not effective” and the EC50 [3] is reported as 5.09 µM. It also gave an EC50 [4] of 4.86 µM.

In the case of `CCCCCCCCCCCCOC(=O)CC[C@H](NC(=O)c1ccc(N(C)Cc2cnc3nc(N)nc(N)c3n2)cc1)C(=O)O` [γ-C12H25-MTX, γ-dodecylate-MTX], the “inhibiting the growth” value [3] is reported as “not effective”, the EC50 [3] is reported as 4.86 µM and the EC50 [4] is reported as 0.013 µM.

From patent US6774121B1, “Phospholipid prodrugs of anti-proliferative drugs” (D-Pharm, Ltd., priority 1999, dated 2004)
